Reference: US20030053977A1, “Compositions comprising at least one aminated C5-C7 saccharide unit, and their use for the protection and/or repair of keratinous fibers” (priority 2001, published 2003)

Tests used:
[1] = DSC doublet peak area of bleached hair after twelve heat cycles (galactosamine)
Description: In the DSC experiments (using DSC-6 with Autosampler, Perkin Elmer), the hair was cut in small fragments (1-2 mm) and sealed in […] aluminum pans that were punctured prior to heating, resulting in a 50 micron laser-drilled opening in the pan lid. The hair was heated from 25° C. to 300° C. at a heating rate of 2^0° C./min. Three runs per section were performed. The results were averaged and standard deviations determined. Normal brown hair was processed with Revlon Realistic Professional Extra-Strength Relaxer for 30 min. at standard room temperature and humidity. The relaxed brown hair was subjected to six heat cycles, each heat cycle comprised applying the treatment solutions to the hair, blow-drying the hair, and applying heat to the hair for 1 min. in the form of the Professional Flat Iron (Solid Gold) set at “High” (130° C. to 135° C.). The hair was shampooed with a 10% solution of sodium laureth sulfate after each heat cycle, that is, after the heat application and prior to application of the treatment solution. Normal brown hair was bleached with […] Blonde Dimensions Dust-Free Bleached mixed with 40 volume (12% hydrogen peroxide). The bleached hair was then subject to twelve heat cycles. The heat treatment was as described in Example 2. The heat-treated hair was tested by DSC (Perkin Elmer Pyris 1 DSC) as described in Example 1. […]

[2] = DSC doublet peak area of normal blonde hair after 12 heat cycles (lyxosylamine)
Description: Normal brown hair was processed with Revlon Realistic Professional Extra-Strength Relaxer for 30 min. at standard room temperature and humidity. The relaxed brown hair was subjected to six heat cycles, each heat cycle comprised applying the treatment solutions to the hair, blow-drying the hair, and applying heat to the hair for 1 min. in the form of the Professional Flat Iron (Solid Gold) set at “High” (130° C. to 135° C.). The hair was shampooed with a 10% solution of sodium laureth sulfate after each heat cycle, that is, after the heat application and prior to application of the treatment solution.
Normal blonde hair was subjected to 12 heat cycles, as described in Example 2, using a 0.1 wt % solution of D-Lyxosylamine.

[3] = Wet tensile strength (Dia-Stron) of relaxed hair after six heat cycles
Description: Normal brown hair was processed with Revlon Realistic Professional Extra-Strength Relaxer for 30 min. at standard room temperature and humidity. The relaxed brown hair was subjected to six heat cycles, each heat cycle comprised applying the treatment solutions to the hair, blow-drying the hair, and applying heat to the hair for 1 min. in the form of the Professional Flat Iron (Solid Gold) set at “High” (130° C. to 135° C.). The hair was shampooed with a 10% solution of sodium laureth sulfate after each heat cycle, that is, after the heat application and prior to application of the treatment solution. The treatment solutions included: a) deionized water; and b) 1% (w/v) glucosamine hydrochloride (Glucosamine HCl). The hair was tested for wet tensile strength using a Dia-Stron. The fibers were stretched in water at a rate of 10 mm/min., with 50 fibers per test. The results were averaged, and standard deviations determined. As used herein, “Young's modulus” corresponds to the initial resistance of the hair to the applied pulling force, “Work 25%” is the work required to extend the hair fiber to 25% of its length, “Break Extension” is the hair extension observed at the breaking point expressed at percent of its original length, and “Work-Break” is the work required to break the hair.

[4] = DSC doublet peak area (alpha-structure) of relaxed hair after six heat cycles
Description: In the DSC experiments (using DSC-6 with Autosampler, Perkin Elmer), the hair was cut in small fragments (1-2 mm) and sealed in […] aluminum pans that were punctured prior to heating, resulting in a 50 micron laser-drilled opening in the pan lid. The hair was heated from 25° C. to 300° C. at a heating rate of 2^0° C./min. Three runs per section were performed. The results were averaged and standard deviations determined. Normal brown hair was processed with Revlon Realistic Professional Extra-Strength Relaxer for 30 min. at standard room temperature and humidity. The relaxed brown hair was subjected to six heat cycles, each heat cycle comprised applying the treatment solutions to the hair, blow-drying the hair, and applying heat to the hair for 1 min. in the form of the Professional Flat Iron (Solid Gold) set at “High” (130° C. to 135° C.). The hair was shampooed with a 10% solution of sodium laureth sulfate after each heat cycle, that is, after the heat application and prior to application of the treatment solution. The treatment solutions included: a) deionized water; and b) 1% (w/v) glucosamine hydrochloride (Glucosamine HCl). The hair swatches from Example 2 were studied by differential scanning calorimetry (DSC). In this example, the hair was equilibrated at standard room temperature and humidity for 24 hours prior to testing.

[5] = DSC doublet peak area of bleached hair after 6 and 12 heat cycles
Description: In the DSC experiments (using DSC-6 with Autosampler, Perkin Elmer), the hair was cut in small fragments (1-2 mm) and sealed in […] aluminum pans that were punctured prior to heating, resulting in a 50 micron laser-drilled opening in the pan lid. The hair was heated from 25° C. to 300° C. at a heating rate of 2^0° C./min. Three runs per section were performed. The results were averaged and standard deviations determined. Normal brown hair was processed with Revlon Realistic Professional Extra-Strength Relaxer for 30 min. at standard room temperature and humidity. The relaxed brown hair was subjected to six heat cycles, each heat cycle comprised applying the treatment solutions to the hair, blow-drying the hair, and applying heat to the hair for 1 min. in the form of the Professional Flat Iron (Solid Gold) set at “High” (130° C. to 135° C.). The hair was shampooed with a 10% solution of sodium laureth sulfate after each heat cycle, that is, after the heat application and prior to application of the treatment solution. Normal brown hair was bleached using […] Blonding Gels Clear with 40 volume (12% hydrogen peroxide). The hair was subject to a total of twelve heat cycles. The heat treatment was as described in Example 2. The heat-treated hair was tested by DSC (Perkin Elmer Pyris 1 DSC) as described in Example 1. The hair was tested after Cycles 6 and 12. The treatment solutions included: a) deionized water, b) 0.001% (w/v) glucosamine hydrochloride solution, c) 0.010% (w/v) glucosamine hydrochloride solution, d) 0.100% (w/v) glucosamine hydrochloride solution, and e) 1.000% (w/v) glucosamine hydrochloride solution. Three DSC runs per treatment were performed, the results were averaged, and standard deviations determined.

[6] = 1% solution, relaxed hair, six heat cycles
[7] = relaxed hair after 6 cycles at 130° C. with 1% (w/v) solution, wet tensile, n = 50 fibers

With `Cl.N[C@H]1C(O)O[C@H](CO)[C@H](O)[C@@H]1O` (some centres unmarked) [Galactosamine HCI, galactosamine hydrochloride] the “doublet area as compared to the control solution (deionized water)” value ([1]; 1% solution, bleached hair, 12 heat cycles) was “significant increase” and the “Doublet Peak Area” value ([1]; bleached hair after 12 heat cycles with 1% solution) was 41.52 +/− 3.94 J/g hair.

For `NC1OC[C@@H](O)[C@H](O)[C@@H]1O` (stereo partly drawn) [D-Lyxosylamine], the “protection of the α-structure of hair as compared to the control solution (deionized water)” value ([2]; 0.1 wt % solution, normal blonde hair, 12 heat cycles) was “protected the α-structure” and the “Doublet Peak Area” value ([2]; normal blonde hair after 12 heat cycles with 0.1% solution) was 11.49 +/− 3.56 J/g hair.

In the case of `Cl.N[C@H]1C(O)O[C@H](CO)[C@@H](O)[C@@H]1O` (some centres unmarked) [Glucosamine HCl, glucosamine hydrochloride], the “tensile properties as compared to the control treatment with deionized water” value [3, 6] is reported as “superior tensile properties”, the “Break Extension” value [3, 7] is reported as 55.10 +/− 4.77% and the “Work 25%” value [3, 7] is reported as 419 +/− 111 J/m^2. The Work-Break [3, 7] was 1800 +/− 477 J/m^2, the “Young's Modulus” value [3, 7] was 613 +/− 196 MN/m^2 and the “doublet area as compared to the control solution (deionized water)” value [4, 6] was “significant increase”. For the same molecule, the “Doublet Peak Area” value ([4]; relaxed hair after 6 heat cycles with 1% solution) was 23.11 +/− 7.09 J/g hair, the “Doublet Peak Area” value ([5]; 0.001% solution, 6 cycles) was 11.11 +/− 1.74 J/g hair and the “Doublet Peak Area” value ([5]; 0.001% solution, 12 cycles) was 14.74 +/− 5.95 J/g hair. For the same molecule, the “doublet area as compared to the control solution (deionized water)” value ([5]; 0.001% to 1.000% solutions, 6 and 12 heat cycles) was “significant increase”, the “Doublet Peak Area” value ([5]; 0.010% solution, 6 cycles) was 12.32 +/− 3.74 J/g hair and the “Doublet Peak Area” value ([5]; 0.010% solution, 12 cycles) was 21.66 +/− 12.88 J/g hair. The “Doublet Peak Area” value ([5]; 0.100% solution, 6 cycles) was 17.32 +/− 2.23 J/g hair, the “Doublet Peak Area” value ([5]; 0.100% solution, 12 cycles) was 20.92 +/− 1.73 J/g hair and the “Doublet Peak Area” value ([5]; 1.000% solution, 6 cycles) was 19.40 +/− 4.14 J/g hair. The “Doublet Peak Area” value ([5]; 1.000% solution, 12 cycles) was 22.98 +/− 6.57 J/g hair.
